Source: article PMC12534982 (Journal of Experimental & Clinical Cancer Research : CR, 2025)

Key:
[1] = tested on: basal forebrain cholinergic neurons (BFCNs); assay: Cytoskeleton immunostaining; assay type: cell-based, mouse; conditions: 24 h
Description: To evaluate DNA damage, cancer cells (1 × 10^3) were cultured in 8-well collagen IV Ibidi chamber slides (#80,822; Ibidi) for 24 h, treated with DMSO or NK-A 17E-233I (25 µM) for an additional 24 h, and then fixed. For assessing the integrity of the cytoskeleton, neuronal cells (BFCNs) were cultured on coverslips for 14 days, while non-neuronal cells (cancer cells) were cultured on coverslips for 24 h. Both neuronal and non-neuronal cells were treated with DMSO or NK-A 17E-233I (1 µM) for 24 h, fixed, and permeabilized as described in [21]. Samples were then blocked (non-neuronal cells with 3% BSA in PBS-T and neuronal cells with 10% BSA in PBS-T) and incubated overnight at 4 °C with the appropriate primary antibodies. Following this, samples were washed with PBS-T and incubated for 1 h with Alexa-488 Phalloidin (#A12379; Invitrogen-ThermoFisher Scientific) to visualize F-actin, along with the corresponding secondary antibodies. The cells were mounted with Ibidi mounting medium containing 4',6-diamidino-2-phenylindole (DAPI, #50011; Ibidi) prior to imaging.
The primary antibodies utilized were: anti–α-tubulin at a 1:1000 dilution (#SC-32293; Santa Cruz), anti–γ-H2AX and anti-Rad51 at 1:500 dilution (#ab22551 and #ab133534, respectively; […]), and anti–microtubule-associated protein 2 (MAP2) at a 1:1000 dilution (#OSM00149W; ThermoFisher Scientific). […]

colorectal cancer cells [2] = assay: RT-qPCR; assay type: cell-based, human; conditions: 25 µM, 48 h
Description: Cancer cells (0.8 × 10^6) were cultured in 60-mm Petri dishes and treated for 48 h with DMSO or NK-A 17E-233I (25 µM). The pellets were collected, and the total RNA was isolated using TRI Reagent Solution (#T9424; Sigma-Aldrich). The concentration and purity of RNA samples were assessed using a Nanodrop (Nanodrop ND-1000 spectrophotometer, Thermo Fisher) and stored at -80°C. Complementary DNA (cDNA) was generated using MultiScribe Reverse Transcriptase (#A25776; ThermoFisher Scientific), and the resulting cDNA was diluted and analyzed by qPCR using the StepOnePlus Real-Time PCR System (Applied Biosystems) with Power UP SYBR Green Master Mix (#A25741; ThermoFisher Scientific). β-actin was used as the endogenous control gene, and the fold change was calculated using the 2^−ΔΔCT method. Data processing was conducted using StepOnePlus Software for Windows, v2.3. All primer sequences were designed using the Primer 3 Plus software, validated by the Primer-BLAST tool, and submitted to Integrated DNA Technologies (IDT, Madrid, Spain). The primer sequences utilized in this study are listed below: […]

FBS-starved cancer cells = assay: Serum starvation of cancer cells (CellTiter-Glo); assay type: cell-based, human; conditions: 25 µM, 24 h, FBS-free
Description: Cancer cells (7.5 × 10^3) were cultured in a 96-well plate in DMEM (fortified with 10% FBS) for 24 h. Subsequently, the cells were subjected to serum starvation (FBS-free DMEM) and treated with either DMSO or NK-A 17E-233I (25 µM) for an additional 24 h. Cell proliferation was measured using the CellTiter-Glo reagent as previously described.

colorectal cancer cells [3] = assay: Live-cell imaging; assay type: cell-based, human; conditions: 25 µM, 24 h time-lapse
Description: Following staining, cells were treated with either DMSO or NK-A 17E-233I (25 µM) and subjected to time-lapse imaging for another 24 h, with an acquisition time of 1 h between frames. Cells were maintained at 37 °C with 5% CO2 and 95% humidity using Okolab chambers and monitored with a Leica DMi8 microscope equipped with a Leica DFC9000GT camera. Images were captured in brightfield and at 405 nm to visualize the nuclei using a 20X objective (HC PL FLUOTAR 20x/0.75). Images were processed using Leica Application Suite X (LAS X) Life Science Microscope Software (v3.5.5.19976, RRID:SCR_013673).

[4] = tested on: tumor-derived intestinal organoids; assay: Organoid viability (CellTiter-Glo 3D); assay type: cell-based, human; conditions: 96 h
colorectal cancer cells [5] = assay: Cell proliferation assay (Trypan Blue exclusion); assay type: cell-based, human
Description: Cancer cells (7.5 × 10^3) were cultured in 60-mm Petri dishes and treated with DMSO or NK-A 17E-233I (25 µM) to evaluate their proliferation at various time intervals (24 h, 48 h, 96 h, 120 h) using the Trypan Blue exclusion assay.

SW620 cells = assay: RNA sequencing (RNASeq); assay type: cell-based, human; conditions: 25 µM, 48 h
Description: Cancer cells (2.2 × 10^6) were cultured in 100-mm Petri dishes and treated with either DMSO or NK-A 17E-233I (25 µM) for a duration of 48 h. Dry cell pellets were collected from three independent biological replicates and submitted to Novogene for RNASeq analysis (Cambridge, UK). The raw data are available in detail at the Zenodo repository (10.5281/zenodo.14833856).

COc1cc(C)c(Oc2cc(C)cc(O)c2O)c(O)c1 [NK-A 17E-233I]
dendritic and cytoskeletal structures (F-actin, MAP2) [1]: retained their dendritic and cytoskeletal structures | mRNA expression levels of POLD1 and POLD2 (colorectal cancer cells [2]): reductions | effect on starved cancer cells (FBS-starved cancer cells): no significant effect | progression through mitosis (G2/M) (colorectal cancer cells [3]): failed to progress through mitosis | sensitivity of tumor-derived organoids [4]: demonstrated sensitivity to NK-A 17E-233I in a dose-dependent manner | cell proliferation (colorectal cancer cells [5]; 25 µM, over time): reduced | growth inhibition in the presence of physiological uridine (colorectal cancer cells [5]; SW620, 25 µM, 24 h, 5 µM and 20 µM uridine): did not mitigate the growth inhibitory effects | POLD2 gene expression (RNASeq) (SW620 cells): significantly downregulated
